Test results as given in patent US6737383B1, “Herbicidal oxadiazolidines” (priority 1999, dated 2004).

What was measured:
wheat = experiment: Test B pre/postemergence wheat; assay type: in vivo, Triticum aestivum; conditions: for Plant response rating, Wheat: scale of 0 to 10 where 0 is no effect and 10 is complete control
Outline: (§1)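 Response is a visual 0-to-10 score relative to untreated plants, where 0 means no effect and 10 means complete control, taken twelve to sixteen days after application. Treatments went onto soil at planting and onto foliage of 1- to 4-leaf plants, using a surfactant-containing non-phytotoxic solvent.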

surinam grass = experiment: Test B pre/postemergence surinam grass; assay type: in vivo, Brachiaria decumbens
Outline: as §1

giant foxtail = experiment: Test B pre/postemergence giant foxtail; assay type: in vivo, Setaria faberii
Outline: as §1

soybean = experiment: Test B pre/postemergence soybean; assay type: in vivo, Glycine max; conditions: for Plant response rating, Soybean: scale of 0 to 10 where 0 is no effect and 10 is complete control
Outline: as §1

corn = experiment: Test B pre/postemergence corn; assay type: in vivo, Zea mays
Outline: as §1

bedstraw = experiment: Test B pre/postemergence bedstraw; assay type: in vivo, Galium aparine; conditions: Postemergence
Outline: as §1

purple nutsedge = experiment: Test B pre/postemergence purple nutsedge; assay type: in vivo, Cyperus rotundus; conditions: for Plant response rating, Nutsedge: scale of 0 to 10 where 0 is no effect and 10 is complete control
Outline: as §1

rice = experiment: Test B flood test rice; assay type: in vivo, Oryza sativa
Outline: (§2)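 Plants were grown to the 2-leaf stage before treatment with test chemical, then held in a greenhouse for twelve to sixteen days. Injury was visually rated against untreated controls on a 0–10 scale, where 0 is no effect and 10 is complete control.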

pigweed = experiment: Test B pre/postemergence pigweed; assay type: in vivo, Amaranthus retroflexus; conditions: for Plant response rating, Redroot pigweed: scale of 0 to 10 where 0 is no effect and 10 is complete control
Outline: as §1

morningglory = experiment: Test B pre/postemergence morningglory; assay type: in vivo, Ipomoea hederacea; conditions: for Plant response rating, Morningglory: scale of 0 to 10 where 0 is no effect and 10 is complete control
Outline: as §1

wild oat = experiment: Test B pre/postemergence wild oat; assay type: in vivo, Avena fatua; conditions: for Plant response rating, Wild oats: scale of 0 to 10 where 0 is no effect and 10 is complete control
Outline: as §1

duck salad = experiment: Test B flood test duck salad; assay type: in vivo, Heteranthera limosa
Outline: as §2

crabgrass = experiment: Test B pre/postemergence crabgrass; assay type: in vivo, Digitaria sanguinalis
Outline: as §1

velvetleaf = experiment: Test B pre/postemergence velvetleaf; assay type: in vivo, Abutilon theophrasti; conditions: for Plant response rating, Velvetleaf: scale of 0 to 10 where 0 is no effect and 10 is complete control
Outline: as §1

blackgrass = experiment: Test B pre/postemergence blackgrass; assay type: in vivo, Alopecurus myosuroides
Outline: as §1

smallflower flatsedge = experiment: Test B flood test smallflower flatsedge; assay type: in vivo, Cyperus difformis
Outline: as §2

[1] = Postemergence, Rate 250 g/ha, scale 0 to 10
[2] = Preemergence, Rate 250 g/ha, scale 0 to 10, 0 is no effect, 10 is complete control
[3] = Preemergence, Rate 500 g/ha, scale 0 to 10, 0 is no effect, 10 is complete control
[4] = Rate 62 g/ha, Postemergence, scale 0 to 10 (0 no effect, 10 complete control)
[5] = Rate 125 g/ha, Postemergence, scale 0 to 10, 0 is no effect, 10 is complete control
[6] = Postemergence, Rate 500 g/ha, scale of 0 to 10 where 0 is no effect and 10 is complete control
[7] = Preemergence, Rate 62 g/ha, scale of 0 to 10 where 0 is no effect and 10 is complete control
[8] = Preemergence, Rate 125 g/ha, scale of 0 to 10 where 0 is no effect and 10 is complete control
[9] = Rate 62 g/ha, flood test species, Pre-emergence, visual evaluation after twelve to sixteen days
[10] = Rate 125 g/ha, under heading Pre-emergence, flood test species, visual evaluation after twelve to sixteen days
[11] = Rate 250 g/ha, Pre-emergence (flood test species), scale 0 to 10, 0 is no effect, 10 is complete control
[12] = Rate 500 g/ha, Pre-emergence, flood test species, scale 0 to 10 (0 no effect, 10 complete control)

CC(C)N(C(=O)n1oc(=O)n(CO)c1=O)c1ccc(F)cc1 [Compound 470]
Wheat plant response rating (wheat; [1]): 0 | Plant response rating, Wheat (wheat; Preemergence, Rate 62 g/ha): 0 | Plant response rating, Wheat (wheat; Preemergence, Rate 125 g/ha): 0 | Wheat plant response rating (wheat; [2]): 0 | Wheat plant response rating (wheat; [3]): 0 | Wheat plant response rating (wheat; [4]): 0 | Wheat plant response rating (wheat; [5]): 0 | B. signalgrass plant response rating (surinam grass; Postemergence, Rate 250 g/ha, scale 0 to 10, 0 no effect, 10 complete control): 0 | B. signalgrass plant response rating (surinam grass; [6]): 0 | Plant response rating, B. signalgrass (surinam grass; [7]): 0 | Plant response rating, B. signalgrass (surinam grass; [8]): 0 | B. signalgrass plant response rating (surinam grass; [2]): 4 | B. signalgrass plant response rating (surinam grass; [3]): 6 | B. signalgrass plant response rating (surinam grass; [4]): 0 | B. signalgrass plant response rating (surinam grass; [5]): 0 | Giant foxtail plant response rating (giant foxtail; [1]): 0 | Giant foxtail plant response rating (giant foxtail; [6]): 0 | Plant response rating, Giant foxtail (giant foxtail; [7]): 0 | Plant response rating, Giant foxtail (giant foxtail; [8]): 0 | Giant foxtail plant response rating (giant foxtail; [2]): 0 | Giant foxtail plant response rating (giant foxtail; [3]): 3 | Giant foxtail plant response rating (giant foxtail; [4]): 0 | Giant foxtail plant response rating (giant foxtail; [5]): 0 | Soybean plant response rating (soybean; [1]): 1 | Plant response rating, Soybean (soybean; Preemergence, Rate 62 g/ha): 0 | Plant response rating, Soybean (soybean; Preemergence, Rate 125 g/ha): 0 | Soybean plant response rating (soybean; [2]): 0 | Soybean plant response rating (soybean; [3]): 0 | Soybean plant response rating (soybean; [4]): 0 | Soybean plant response rating (soybean; [5]): 0 | Corn plant response rating (corn; [1]): 0 | Corn plant response rating (corn; [6]): 0 | Plant response rating, Corn (corn; [7]): 0 | Plant response rating, Corn (corn; [8]): 0 | Corn plant response rating (corn; [2]): 0 | Corn plant response rating (corn; [3]): 0 | Corn plant response rating (corn; [4]): 0 | Corn plant response rating (corn; [5]): 0 | Bedstraw plant response rating (bedstraw; Rate 62 g/ha, scale 0 to 10 (0 no effect, 10 complete control)): 0 | Bedstraw plant response rating (bedstraw; Rate 125 g/ha, scale 0 to 10, 0 is no effect, 10 is complete control): 0 | Nutsedge plant response rating (purple nutsedge; [1]): 0 | Plant response rating, Nutsedge (purple nutsedge; Preemergence, Rate 62 g/ha): 0 | Plant response rating, Nutsedge (purple nutsedge; Preemergence, Rate 125 g/ha): 0 | Nutsedge plant response rating (purple nutsedge; [2]): 0 | Nutsedge plant response rating (purple nutsedge; [3]): 0 | Nutsedge plant response rating (purple nutsedge; [4]): 0 | Nutsedge plant response rating (purple nutsedge; [5]): 0 | Plant response rating, Rice (0 to 10 scale, 0 is no effect, 10 is complete control) (rice; [9]): 0 | Rice plant response rating (0 to 10 scale, 0 is no effect, 10 is complete control) (rice; [10]): 0 | Rice plant response rating (rice; [11]): 0 | Rice plant response rating (rice; [12]): 0 | Redroot pigweed plant response rating (pigweed; [1]): 0 | Plant response rating, Redroot pigweed (pigweed; Preemergence, Rate 62 g/ha): 0 | Plant response rating, Redroot pigweed (pigweed; Preemergence, Rate 125 g/ha): 0 | Redroot pigweed plant response rating (pigweed; [2]): 0 | Redroot pigweed plant response rating (pigweed; [3]): 0 | Redroot pigweed plant response rating (pigweed; [4]): 0 | Redroot pigweed plant response rating (pigweed; [5]): 0 | Morningglory plant response rating (morningglory; [1]): 0 | Plant response rating, Morningglory (morningglory; Preemergence, Rate 62 g/ha): 0 | Plant response rating, Morningglory (morningglory; Preemergence, Rate 125 g/ha): 0 | Morningglory plant response rating (morningglory; [2]): 0 | Morningglory plant response rating (morningglory; [3]): 0 | Morningglory plant response rating (morningglory; [4]): 0 | Morningglory plant response rating (morningglory; [5]): 0 | Wild oats plant response rating (wild oat; [1]): 0 | Plant response rating, Wild oats (wild oat; Preemergence, Rate 62 g/ha): 0 | Plant response rating, Wild oats (wild oat; Preemergence, Rate 125 g/ha): 0 | Wild oats plant response rating (wild oat; [2]): 0 | Wild oats plant response rating (wild oat; [3]): 3 | Wild oats plant response rating (wild oat; [4]): 0 | Wild oats plant response rating (wild oat; [5]): 0 | Plant response rating, Ducksalad (0 to 10 scale, 0 is no effect, 10 is complete control) (duck salad; [9]): 0 | Ducksalad plant response rating (0 to 10 scale, 0 is no effect, 10 is complete control) (duck salad; [10]): 0 | Ducksalad plant response rating (duck salad; [11]): 0 | Ducksalad plant response rating (duck salad; [12]): 0 | Crabgrass plant response rating (crabgrass; [1]): 0 | Crabgrass plant response rating (crabgrass; [6]): 0 | Plant response rating, Crabgrass (crabgrass; [7]): 1 | Plant response rating, Crabgrass (crabgrass; [8]): 7 | Crabgrass plant response rating (crabgrass; [2]): 8 | Crabgrass plant response rating (crabgrass; [3]): 9 | Crabgrass plant response rating (crabgrass; [4]): 0 | Crabgrass plant response rating (crabgrass; [5]): 0 | Velvetleaf plant response rating (velvetleaf; [1]): 0 | Plant response rating, Velvetleaf (velvetleaf; Preemergence, Rate 62 g/ha): 0 | Plant response rating, Velvetleaf (velvetleaf; Preemergence, Rate 125 g/ha): 0 | Velvetleaf plant response rating (velvetleaf; [2]): 0 | Velvetleaf plant response rating (velvetleaf; [3]): 0 | Velvetleaf plant response rating (velvetleaf; [4]): 0 | Velvetleaf plant response rating (velvetleaf; [5]): 0 | Blackgrass plant response rating (blackgrass; [1]): 0 | Blackgrass plant response rating (blackgrass; [6]): 0 | Plant response rating, Blackgrass (blackgrass; [7]): 0 | Plant response rating, Blackgrass (blackgrass; [8]): 0 | Blackgrass plant response rating (blackgrass; [2]): 7 | Blackgrass plant response rating (blackgrass; [4]): 0 | Blackgrass plant response rating (blackgrass; [5]): 0 | Plant response rating, S. Flatsedge (0 to 10 scale, 0 is no effect, 10 is complete control) (smallflower flatsedge; [9]): 0 | S. Flatsedge plant response rating (0 to 10 scale, 0 is no effect, 10 is complete control) (smallflower flatsedge; [10]): 0 | S. Flatsedge plant response rating (smallflower flatsedge; [11]): 0 | S. Flatsedge plant response rating (smallflower flatsedge; [12]): 0
